What was measured:
SG3199 = compound: CC1=CN2[C@@H](C1)C=NC3=CC(=C(C=C3C2=O)OC)OCCCCCOC4=C(C=C5C(=C4)N=C[C@@H]6CC(=CN6C5=O)C)OC [SG3199]; settings: max 0.001 µM
In short: (§1)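 Following 24 hours at 37°C and 5% CO2, cancer cell lines in 1536-well plates with 7.5 μl DMEM/F12 or RPMI and 10% FBS were dosed for 72 hours, final DMSO typically being 0.2%. CellTiter-Glo 2.0 luminescence, scaled between blank-well and DMSO-well means, gave the viability readout. Dose responses were fitted to a two-parameter logistic curve with a non-linear mixed effects model, and the single-agent IC50 was derived from this fit.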

MK-2206 = compound: NC1(c2ccc(-c3nc4ccn5c(=O)[nH]nc5c4cc3-c3ccccc3)cc2)CCC1 [MK-2206]; settings: max 10 µM
In short: as §1

AZD5991 = compound: Cc1c2c(nn1C)CSCc1cc(n(C)n1)CSc1cc(c3ccccc3c1)OCCCc1c(C(=O)O)n(C)c3c-2c(Cl)ccc13 [AZD5991]; settings: max 1 µM
In short: as §1

AZD7648 = compound: Cc1cc2ncnn2cc1Nc1ncc2c(n1)n(C1CCOCC1)c(=O)n2C [AZD7648]; settings: max 10 µM
In short: as §1

Dasatinib = compound: CC1=C(C(=CC=C1)Cl)NC(=O)C2=CN=C(S2)NC3=CC(=NC(=N3)C)N4CCN(CC4)CCO [Dasatinib]; settings: max 2 µM
In short: as §1

5-Fluorouracil = compound: O=c1[nH]cc(F)c(=O)[nH]1 [5-Fluorouracil]; settings: max 20 µM
In short: as §1

AZD1390 = compound: CC(C)n1c(=O)n(C)c2cnc3cc(F)c(-c4ccc(OCCCN5CCCCC5)nc4)cc3c21 [AZD1390]; settings: max 0.3 µM
In short: as §1

Etoposide = compound: COc1cc([C@@H]2c3cc4c(cc3[C@@H](O[C@@H]3O[C@@H]5CO[C@@H](C)O[C@H]5[C@H](O)[C@H]3O)[C@H]3COC(=O)[C@H]23)OCO4)cc(OC)c1O [Etoposide]; settings: max 10 µM
In short: as §1

AZD5153 = compound: COc1nnc2ccc(N3CCC(c4ccc(OCCN5CCN(C)C(=O)[C@H]5C)cc4)CC3)nn12 [AZD5153]; settings: max 1 µM
In short: as §1

Venetoclax = compound: CC1(C)CCC(CN2CCN(c3ccc(C(=O)NS(=O)(=O)c4ccc(NCC5CCOCC5)c([N+](=O)[O-])c4)c(Oc4cnc5[nH]ccc5c4)c3)CC2)=C(c2ccc(Cl)cc2)C1 [Venetoclax]; settings: max 1 µM
In short: as §1

Paclitaxel = compound: CC(=O)O[C@H]1C(=O)[C@@]2(C)[C@H]([C@H](OC(=O)c3ccccc3)[C@]3(O)C[C@H](OC(=O)[C@H](O)[C@@H](NC(=O)c4ccccc4)c4ccccc4)C(C)=C1C3(C)C)[C@]1(OC(C)=O)CO[C@@H]1C[C@@H]2O [Paclitaxel]; settings: max 3 µM
In short: as §1

Doxorubicin = compound: COc1cccc2c1C(=O)c1c(O)c3c(c(O)c1C2=O)C[C@@](O)(C(=O)CO)C[C@@H]3O[C@H]1C[C@H](N)[C@H](O)[C@H](C)O1 [Doxorubicin]; settings: max 1 µM
In short: as §1

AZD2811 = compound: CCN(CCO)CCCOc1ccc2c(Nc3cc(CC(=O)Nc4cccc(F)c4)[nH]n3)ncnc2c1 [AZD2811]; settings: max 1 µM
In short: as §1

AZD8186 = compound: C[C@@H](Nc1cc(F)cc(F)c1)c1cc(C(=O)N(C)C)cc2c(=O)cc(N3CCOCC3)oc12 [AZD8186]; settings: max 10 µM
In short: as §1

Prexasertib = compound: COc1cccc(OCCCN)c1-c1cc(Nc2cnc(C#N)cn2)n[nH]1 [Prexasertib]; settings: max 1 µM
In short: as §1

AZD6738 = compound: C[C@@H]1COCCN1C2=NC(=NC(=C2)C3(CC3)[S@](=N)(=O)C)C4=C5C=CNC5=NC=C4 [AZD6738]; settings: max 10 µM
In short: as §1

Taselisib = compound: Cc1nc(-c2cn3c(n2)-c2ccc(-c4cnn(C(C)(C)C(N)=O)c4)cc2OCC3)n(C(C)C)n1 [Taselisib]; settings: max 10 µM
In short: as §1

Crizotinib = compound: C[C@@H](Oc1cc(-c2cnn(C3CCNCC3)c2)cnc1N)c1c(Cl)ccc(F)c1Cl [Crizotinib]; settings: max 10 µM
In short: as §1

AZD0156 = compound: CN(C)CCCOc1ccc(-c2ccc3ncc4c(c3c2)n(C2CCOCC2)c(=O)n4C)cn1 [AZD0156]; settings: max 3 µM
In short: as §1

AZD1775 = compound: C=CCn1c(=O)c2cnc(Nc3ccc(N4CCN(C)CC4)cc3)nc2n1-c1cccc(C(C)(C)O)n1 [AZD1775]; settings: max 3 µM
In short: as §1

Selumetinib = compound: Cn1cnc2c(F)c(Nc3ccc(Br)cc3Cl)c(C(=O)NOCCO)cc21 [Selumetinib]; settings: max 10 µM
In short: as §1

Gefitinib = compound: COc1cc2ncnc(Nc3ccc(F)c(Cl)c3)c2cc1OCCCN1CCOCC1 [Gefitinib]; settings: max 10 µM
In short: as §1

[1] = compound: O=C(Nc1ccc2[nH]nc(-c3ccncc3)c2c1)[C@@H]1CCN(CC(=O)N2CCN(c3ccc(-c4ncccn4)cc3)CC2)C1; settings: max 5 µM
In short: as §1

Savolitinib = compound: C[C@@H](c1ccc2nccn2c1)n1nnc2ncc(-c3cnn(C)c3)nc21 [Savolitinib]; settings: max 1 µM
In short: as §1

SRA737 = compound: N#Cc1cnc(Nc2cc(NC[C@H]3CNCCO3)c(C(F)(F)F)cn2)cn1 [SRA737]; settings: max 10 µM
In short: as §1

Olaparib = compound: O=C(c1cc(Cc2n[nH]c(=O)c3ccccc23)ccc1F)N1CCN(C(=O)C2CC2)CC1 [Olaparib]; settings: max 10 µM
In short: as §1

SN-38 = compound: CCc1c2c(nc3ccc(O)cc13)-c1cc3c(c(=O)n1C2)COC(=O)[C@]3(O)CC [SN-38]; settings: max 0.3 µM
In short: as §1

Alisertib = compound: COc1cc(Nc2ncc3c(n2)-c2ccc(Cl)cc2C(c2c(F)cccc2OC)=NC3)ccc1C(=O)O [Alisertib]; settings: max 10 µM
In short: as §1

Gemcitabine = compound: Nc1ccn([C@@H]2O[C@H](CO)[C@@H](O)C2(F)F)c(=O)n1 [Gemcitabine]; settings: max 0.3 µM
In short: as §1

AZD5363 = compound: C1CN(CCC1(C(=O)N[C@@H](CCO)C2=CC=C(C=C2)Cl)N)C3=NC=NC4=C3C=CN4 [AZD5363]; settings: max 10 µM
In short: as §1

Palbociclib = compound: CC(=O)c1c(C)c2cnc(Nc3ccc(N4CCNCC4)cn3)nc2n(C2CCCC2)c1=O [Palbociclib]; settings: max 10 µM
In short: as §1

AZD4320 = compound: CN(CC[C@H](CSC1=CC=CC=C1)NC2=C(C=C(C=C2)S(=O)(=O)NC(=O)C3=CC=C(C=C3)N4CCC(CC4)[C@H](C5=CC=CC=C5C6=CC=C(C=C6)Cl)O)S(=O)(=O)C(F)(F)F)CCO [AZD4320]; settings: max 1 µM
In short: as §1

Lapatinib = compound: CS(=O)(=O)CCNCc1ccc(-c2ccc3ncnc(Nc4ccc(OCc5cccc(F)c5)c(Cl)c4)c3c2)o1 [Lapatinib]; settings: max 10 µM
In short: as §1

Carboplatin = compound: C1CC(C1)(C(=O)[O-])C(=O)[O-].N.N.[Pt+2] [Carboplatin]; settings: max 10 µM
In short: as §1

Trametinib = compound: CC(=O)Nc1cccc(-n2c(=O)n(C3CC3)c(=O)c3c(Nc4ccc(I)cc4F)n(C)c(=O)c(C)c32)c1 [Trametinib]; settings: max 1 µM
In short: as §1

Cell Line	IC50, cell viability 72 h (SG3199) [nM]	IC50, cell viability 72 h (MK-2206) [nM]	IC50, cell viability 72 h (AZD5991) [nM]	IC50, cell viability 72 h (AZD7648) [nM]	IC50, cell viability 72 h (Dasatinib) [nM]	IC50, cell viability 72 h (5-Fluorouracil) [nM]	IC50, cell viability 72 h (AZD1390) [nM]	IC50, cell viability 72 h (Etoposide) [nM]	IC50, cell viability 72 h (AZD5153) [nM]	IC50, cell viability 72 h (Venetoclax) [nM]	IC50, cell viability 72 h (Paclitaxel) [nM]	IC50, cell viability 72 h (Doxorubicin) [nM]	IC50, cell viability 72 h (AZD2811) [nM]	IC50, cell viability 72 h (AZD8186) [nM]	IC50, cell viability 72 h (Prexasertib) [nM]	IC50, cell viability 72 h (AZD6738) [nM]	IC50, cell viability 72 h (Taselisib) [nM]	IC50, cell viability 72 h (Crizotinib) [nM]	IC50, cell viability 72 h (AZD0156) [nM]	IC50, cell viability 72 h (AZD1775) [nM]	IC50, cell viability 72 h (Selumetinib) [nM]	IC50, cell viability 72 h (Gefitinib) [nM]	IC50, cell viability 72 h [1] [nM]	IC50, cell viability 72 h (Savolitinib) [nM]	IC50, cell viability 72 h (SRA737) [nM]	IC50, cell viability 72 h (Olaparib) [nM]	IC50, cell viability 72 h (SN-38) [nM]	IC50, cell viability 72 h (Alisertib) [nM]	IC50, cell viability 72 h (Gemcitabine) [nM]	IC50, cell viability 72 h (AZD5363) [nM]	IC50, cell viability 72 h (Palbociclib) [nM]	IC50, cell viability 72 h (AZD4320) [nM]	IC50, cell viability 72 h (Lapatinib) [nM]	IC50, cell viability 72 h (Carboplatin) [nM]	IC50, cell viability 72 h (Trametinib) [nM]
BC-1 (B-Cell Non-Hodgkin's Lymphoma)	> 1	4100	87.2	> 10000	> 2000	17200	> 300	770	17.5	> 1000	12.1	50	199	> 10000	13	2950	> 10000	1690	2420	321	> 10000	9560	> 5000	> 1000	2700	> 10000	5.32	65.3	15.4	4400	342	> 1000	8740	> 10000	> 1000
C32 (Melanoma)	> 1	> 10000	> 1000	> 10000	> 2000	> 20000	> 300	> 10000	> 1000	> 1000	346	> 1000	> 1000	> 10000	52.7	8160	> 10000	> 10000	> 3000	> 3000	323	> 10000	174	> 1000	> 10000	> 10000	61.7	> 10000	54.1	> 10000	> 10000	> 1000	> 10000	> 10000	4.11
CAL-85-1 (Breast Carcinoma)	> 1	> 10000	> 1000	> 10000	1210	> 20000	> 300	> 10000	534	> 1000	66.7	> 1000	> 1000	> 10000	> 1000	> 10000	6290	> 10000	> 3000	2040	> 10000	> 10000	> 5000	> 1000	> 10000	> 10000	96.5	> 10000	246	> 10000	> 10000	> 1000	> 10000	> 10000	351
COR-L105 (Lung Adenocarcinoma)	> 1	> 10000	> 1000	> 10000	> 2000	> 20000	> 300	> 10000	> 1000	> 1000	> 3000	> 1000	> 1000	> 10000	> 1000	> 10000	7360	> 10000	> 3000	2080	> 10000	2490	> 5000	> 1000	> 10000	> 10000	> 300	> 10000	> 300	> 10000	> 10000	> 1000	6660	> 10000	244
GCIY (Gastric Carcinoma)	> 1	> 10000	> 1000	> 10000	589	> 20000	> 300	> 10000	> 1000	> 1000	549	> 1000	> 1000	> 10000	41.9	3030	895	> 10000	> 3000	> 3000	> 10000	> 10000	> 5000	> 1000	> 10000	> 10000	90	1210	> 300	> 10000	> 10000	> 1000	> 10000	> 10000	271

Reference: the supplement of paper PMC11061612
